US20140163095A1, “USE OF ERIBULIN IN THE TREATMENT OF BREAST CANCER” (priority 2012, published 2014)
Marks after values point to notes of the source that are not given here.

Legend:
[1] = system: locally recurrent or metastatic HER2 negative breast cancer; assay: Phase II clinical trial of eribulin mesylate as first-line treatment (Part 2, additional data); format: in vivo, human
Excerpt: This example provides additional data obtained from the study described above in Example 2. The baseline demographics and characteristics of patients in the study are as set forth below in Table 6.

[2] = system: locally recurrent or metastatic HER2 negative breast cancer; assay: Phase II clinical trial of eribulin mesylate as first-line treatment (Part 1); format: in vivo, human; details: for DOR (duration of response), Median months (95% CI) / TTR (time to first response), Median months (95% CI): 13 responders
Description: (§1) A multi-center, single-arm, phase II clinical trial of eribulin mesylate was performed to evaluate the objective response rate (ORR) (according to RECIST v1.1) to first-line treatment with single-agent eribulin mesylate in subjects with locally recurrent or metastatic HER2 negative breast cancer. Secondary objectives included the safety and tolerability of eribulin mesylate, time to first response, duration of response (DOR), and progression free survival (PFS).
Patients were excluded from the study if they had inflammatory breast cancer or had received prior chemotherapy, biologic therapy, or investigational therapy for locally recurrent or metastatic breast cancer (patients who received prior endocrine therapy were permitted).
HER2 status was determined by either fluorescence in situ hybridization (FISH) or 0 or 1+ by immunohistochemical (IHC) staining. Subjects with an HER2:FISH ratio of 1.8:2.2 were eligible, consistent with ASCO/CAP guidelines (Wolff et al., J. Clin. Oncol. 25:118-145, 2007).

[3] = system: subjects with locally recurrent or metastatic HER2 negative breast cancer; assay: Phase II first-line trial, safety outcomes
Description: as §1

[4] = ER−/PR−/HER2−, n 2, CI not available
[5] = All Subjects, listed as eribulin

C=C1C[C@@H]2CC[C@@]34C[C@H]5O[C@H]6[C@@H](O3)[C@H]3O[C@H](CC[C@@H]3O[C@H]6[C@H]5O4)CC(=O)C[C@@H]3[C@@H](OC)[C@@H](C[C@H](O)CN)O[C@H]3C[C@H]3O[C@@H](CC[C@@H]1O2)C[C@@H](C)C3=C.CS(=O)(=O)O [Eribulin, 11,15:18,21:24,28-Triepoxy-7,9-ethano-12,15-methano-9H,15H-furo[3,2-i]furo[2′,3′:5,6]pyrano[4,3-b][1,4]dioxacyclopentacosin-5(4H)-one, 2-[(2S)-3-amino-2-hydroxypropyl]hexacosahydro-3-methoxy-26-methyl-20,27-bis(methylene)-, (2R,3R,3aS,7R,8aS,9S,10aR,11S,12R,13aR,13bS,15S,18S,21S,24S,26R,28R,29aS)-methanesulfonate (salt)]
DOR (duration of response), Median months (95% CI) ([1]; ALL, 16 responders): 5.8 (4.7-10.6) months | TTR (time to first response), Median months (95% CI) ([1]; ALL, 16 responders): 1.4 (1.2-2.7) months | TTR (time to first response), Median months (95% CI) ([1]; ALL, 16 responders, listed as eribulin): 1.4 months | PFS, Median months (95% CI) ([1]; ALL, N 56): 6.8 (4.4-7.6) months | PFS, Median months (95% CI) ([1]; ALL, N 56, listed as eribulin): 6.8 months | Clinical benefit rate (CR + PR + ≧6 months SD) ([1]; ALL, N = 56): 29 (51.8) n (%) | Complete response (CR) ([1]; ALL, N = 56): 0 n (%) | Disease control rate (CR + PR + SD) ([1]; ALL, N = 56): 42 (75.0) n (%) | Not evaluable/unknown (response category) ([1]; ALL, N = 56): 3 (5.4) n (%) | Objective response rate (ORR) ([1]; ALL, N = 56): 16 (28.6) n (%) | Partial response (PR) ([1]; ALL, N = 56): 16 (28.6) n (%) | Progressive disease (PD) ([1]; ALL, N = 56): 11 (19.6) n (%) | ORR ([1]; ER+ subgroup): 34.1% | disease control rate ([1]; ER+ subgroup): 85.4% | DOR, Median months (95% CI) ([1]; ER+, n 14): 7.4 (4.6-27.5) months | TTR, Median months (95% CI) ([1]; ER+, n 14): 2.0 (1.3-2.7) months | PFS, Median months (95% CI) ([1]; ER+, n 41): 7.4 (6.1-11.9) months | PFS, Median months (95% CI) ([1]; ER+, n 41, listed as eribulin): 7.4 months | Clinical benefit rate (CR + PR + ≧6 months SD) ([1]; ER+, n = 41): 26 (63.4) n (%) | Complete response (CR) ([1]; ER+, n = 41): 0 n (%) | Disease control rate (CR + PR + SD) ([1]; ER+, n = 41): 35 (85.4) n (%) | Not evaluable/unknown (response category) ([1]; ER+, n = 41): 1 (2.4) n (%) | Objective response rate (ORR) ([1]; ER+, n = 41): 14 (34.1) n (%) | Partial response (PR) ([1]; ER+, n = 41): 14 (34.1) n (%) | Progressive disease (PD) ([1]; ER+, n = 41): 5 (12.2) n (%) | DOR, Median months [1, 4]: 5.2* months | TTR, Median months [1, 4]: 1.1* months | PFS, Median months (95% CI) ([1]; ER−/PR−/HER2−, n 12): 3.4 (1.2-6.8) months | sum of target lesion diameters from baseline to postbaseline nadir ([1]; FIG. 12, in words): majority of patients experienced a decrease | Objective response rate (ORR) ([1]; Triple negative (ER−/PR−/HER2−), n = 12): 2 (16.1) n (%) | Clinical benefit rate (CR + PR + ≧6 months SD) ([1]; Triple negative, n = 12): 3 (25.0) n (%) | Complete response (CR) ([1]; Triple negative, n = 12): 0 n (%) | Disease control rate (CR + PR + SD) ([1]; Triple negative, n = 12): 6 (50.0) n (%) | Not evaluable/unknown (response category) ([1]; Triple negative, n = 12): 1 (8.3) n (%) | Partial response (PR) ([1]; Triple negative, n = 12): 2 (16.7) n (%) | Progressive disease (PD) ([1]; Triple negative, n = 12): 5 (41.7) n (%) | ORR ([1]; all patients (16/56)): 28.6% | median PFS ([1]; patients who did not receive prior A/T): 5.7 months | median PFS ([1]; patients who had received prior A/T): 5.9 months | clinical benefit rate (CBR) ([1]; patients with prior A/T (15/33)): 45.5% | ORR ([1]; patients with prior neo/adjuvant anthracyclines and/or taxanes (A/T) (9/33)): 27.3% | DOR (duration of response), Median months (95% CI) ([2]; All Subjects): 7.4 (3.29, NE) months | TTR (time to first response), Median months (95% CI) ([2]; All Subjects): 1.4 (1.31, 2.69) months | DOR (duration of response), Median months (95% CI) [2, 5]: 7.4 months | TTR (time to first response), Median months (95% CI) [2, 5]: 1.4 months | PFS, Median months (95% CI) ([2]; All Subjects, N 48): 5.9 (3.48, 7.39) months | PFS, Median months (95% CI) ([2]; All Subjects, N 48, listed as eribulin): 5.9 months | Clinical benefit rate (CR + PR + durable SD) ([2]; All, N = 48): 22 (45.8) n (%) | Complete response (CR) ([2]; All, N = 48): 0 n (%) | Disease control rate (CR + PR + SD) ([2]; All, N = 48): 36 (75.0) n (%) | Not evaluable/unknown (response category) ([2]; All, N = 48): 1 (2.1) n (%) | Objective response rate (ORR) ([2]; All, N = 48): 13 (27.1) n (%) | Partial response (PR) ([2]; All, N = 48): 13 (27.1) n (%) | Progressive disease (PD) ([2]; All, N = 48): 11 (22.9) n (%) | DOR, Median months (95% CI) ([2]; ER+ Subjects, N 10): 7.4 (3.29, NE) months | TTR, Median months (95% CI) ([2]; ER+ Subjects, N 10): 1.4 (1.22, 2.66) months | PFS, Median months (95% CI) ([2]; ER+ Subjects, N 35): 6.7 (4.14, 8.54) months | Clinical benefit rate (CR + PR + durable SD) ([2]; ER+, N = 35): 19 (54.3) n (%) | Complete response (CR) ([2]; ER+, N = 35): 0 n (%) | Disease control rate (CR + PR + SD) ([2]; ER+, N = 35): 29 (82.9) n (%) | Not evaluable/unknown (response category) ([2]; ER+, N = 35): 0 n (%) | Objective response rate (ORR) ([2]; ER+, N = 35): 10 (28.6) n (%) | Partial response (PR) ([2]; ER+, N = 35): 10 (28.6) n (%) | Progressive disease (PD) ([2]; ER+, N = 35): 6 (17.1) n (%) | sum of target lesion diameters from baseline to post-baseline nadir ([2]; FIG. 10, in words): majority of patients experienced a decrease | Objective response rate (ORR) ([2]; Triple Negative (ER−/PR−/HER2−), N = 10): 3 (30.0) n (%) | TTR, Median months (95% CI) ([2]; Triple Negative Subjects, N 3): 2.9 (1.15, 5.59) months | PFS, Median months (95% CI) ([2]; Triple Negative Subjects, N 10): 4.7 (1.05, NE) months | Clinical benefit rate (CR + PR + durable SD) ([2]; Triple Negative, N = 10): 3 (30.0) n (%) | Complete response (CR) ([2]; Triple Negative, N = 10): 0 n (%) | Disease control rate (CR + PR + SD) ([2]; Triple Negative, N = 10): 6 (60.0) n (%) | Not evaluable/unknown (response category) ([2]; Triple Negative, N = 10): 1 (10.0) n (%) | Partial response (PR) ([2]; Triple Negative, N = 10): 3 (30.0) n (%) | Progressive disease (PD) ([2]; Triple Negative, N = 10): 3 (30.0) n (%) | Objective response rate (ORR) ([2]; all patients (13/48)): 27.1% | incidence of markedly abnormal lab value: low platelets ([3]; 1/51): 2% | leucopenia (treatment-related SAE) ([3]; 1 patient): 1.8% | patients with an abnormal but not clinically significant finding ([3]; 3/52, throughout the study): 5.8% | Febrile neutropenia (treatment-related SAE) ([3]; 3 patients): 5.4% | Treatment-related SAEs ([3]; 5 patients): 8.9% | patients who discontinued the study due to an AE ([3]; 6 patients): 10.7% | incidence of markedly abnormal lab value: low lymphocytes ([3]; 8/44): 18.2% | incidence of markedly abnormal lab value: low hemoglobin ([3]; 8/55): 14.5% | patients with dose interrupted/delayed due to treatment-related AEs ([3]; 20 patients): 35.7% | patients with dose reduced due to treatment-related AEs ([3]; 20 patients): 35.7% | Treatment-related AEs leading to dose adjustment (interruption/delay, reduction, or discontinuation) ([3]; 30 patients): 53.6% | incidence of markedly abnormal lab value: low leukocytes ([3]; 31/54): 57.4% | patients with a treatment-related AE with CTCAE grade ¾ ([3]; 36 patients): 64.3% | incidence of markedly abnormal lab value: low neutrophils ([3]; 41/53): 77.4% | Treatment-related AE: Alopecia ([3]; All grades, N = 56): 47 (83.9) n (%) | Treatment-related AE: Anemia ([3]; All grades, N = 56): 20 (35.7) n (%) | Treatment-related AE: Constipation ([3]; All grades, N = 56): 15 (26.8) n (%) | Treatment-related AE: Diarrhea ([3]; All grades, N = 56): 14 (25.0) n (%) | Treatment-related AE: Fatigue ([3]; All grades, N = 56): 34 (60.7) n (%) | Treatment-related AE: Leukopenia ([3]; All grades, N = 56): 19 (33.9) n (%) | Treatment-related AE: Nausea ([3]; All grades, N = 56): 27 (48.2) n (%) | Treatment-related AE: Neutropenia ([3]; All grades, N = 56): 40 (71.4) n (%) | Treatment-related AE: Peripheral neuropathy ([3]; All grades, N = 56): 32 (57.1) n (%) | Treatment-related AE: Anemia ([3]; Grade 3/4, N = 56): 2 (3.6) n (%) | Treatment-related AE: Constipation ([3]; Grade 3/4, N = 56): 0 n (%) | Treatment-related AE: Diarrhea ([3]; Grade 3/4, N = 56): 0 n (%) | Treatment-related AE: Fatigue ([3]; Grade 3/4, N = 56): 1 (1.8) n (%) | Treatment-related AE: Leukopenia ([3]; Grade 3/4, N = 56): 12 (21.4) n (%) | Treatment-related AE: Nausea ([3]; Grade 3/4, N = 56): 0 n (%) | Treatment-related AE: Neutropenia ([3]; Grade 3/4, N = 56): 28 (50.0) n (%) | Treatment-related AE: Peripheral neuropathy ([3]; Grade 3/4, N = 56): 11 (19.6) n (%) | Alopecia, neutropenia, fatigue, and peripheral neuropathy (most commonly observed treatment-related AEs), each occurring in patients ([3]; human, in vivo): > 50% | duration of grade ¾ peripheral neuropathy (median) ([3]; human, in vivo): 2.3 months | median time to first occurrence of peripheral neuropathy ([3]; human, in vivo): 4 months | AE requiring drug withdrawal in the remaining discontinued patient ([3]; in words): prolonged QT interval requiring drug withdrawal | grade ¾ neutropenia, patients ([3]; most common grade ¾ AE): 50% | Febrile neutropenia (grade 3/4) ([3]; number of patients): 4 patients | discontinuations for which peripheral neuropathy was responsible ([3]; of the 6 events resulting in discontinuations): 5
